Values after ≈ are worked out from the molar mass of the structure shown. Active and inactive are the calls of the source. The calls are words filed in the database; no cut-off is given here. Peptide text beside a SMILES is read from it.
Tests used:
Staphylococcus aureus [1] = test: Antimicrobial activity against multi-drug resistant Staphylococcus aureus assessed as reduction in bacterial growth by broth dilution method; type: functional
Escherichia coli [2] = test: Drug resistance, ratio of MIC for Escherichia coli ATCC 25922 after 15 passages exposure to MIC for Escherichia coli ATCC 25922 after first exposure; type: functional
Acinetobacter baumannii = test: Antimicrobial activity against multi-drug resistant Acinetobacter baumannii assessed as reduction in bacterial growth by broth dilution method; type: functional
Escherichia coli [3] = test: Antimicrobial activity against multi-drug resistant Escherichia coli assessed as reduction in bacterial growth by broth dilution method; type: functional
Klebsiella pneumoniae = test: Antimicrobial activity against multi-drug resistant Klebsiella pneumoniae assessed as reduction in bacterial growth by broth dilution method; type: functional
Staphylococcus aureus [4] = test: Antimicrobial activity against Staphylococcus aureus ATCC 25923 assessed as reduction in bacterial growth by broth dilution method; type: functional
Enterococcus faecalis = test: Antimicrobial activity against multi-drug resistant Enterococcus faecalis assessed as reduction in bacterial growth by broth dilution method; type: functional
Escherichia coli [5] = test: Antimicrobial activity against Escherichia coli ATCC 25922 assessed as reduction in bacterial growth by broth dilution method; type: functional
Staphylococcus aureus [6] = test: Drug resistance, ratio of MIC for Staphylococcus aureus ATCC 25923 after 15 passages exposure to MIC for Staphylococcus aureus ATCC 25923 after first exposure; type: functional
[7] = system: Staphylococcus epidermidis; test: Antimicrobial activity against multi-drug resistant Staphylococcus epidermidis assessed as reduction in bacterial growth by broth dilution method; type: functional
BEAS-2B = test: Cytotoxicity against human BEAS-2B cells at 2 to 256 uM measured after 24 hrs by CCK-8 method; type: toxicity, cell-based; settings: dose 2-256 µM
HEK-293T [8] = test: Cytotoxicity against HEK293T cells at 2 to 256 uM measured after 24 hrs by CCK-8 method; type: toxicity, cell-based; settings: human, dose 2-256 µM
L02 [9] = test: Cytotoxicity against human LO2 cells at 2 to 256 uM measured after 24 hrs by CCK-8 method; type: toxicity, cell-based; settings: l02, 24 h, dose 2-256 µM
[10] = Hemolytic activity in human Red blood cell assessed as hemolysis incubated for 1 hrs by microplate reader based analysis; type: toxicity; settings: erythrocyte
Escherichia coli [11] = test: Antibacterial activity against multidrug resistant Escherichia coli infected in male Kunming mouse model assessed as reduction in tissue hemorrhage by H and E staining based analysis; type: functional, organism-based
Escherichia coli [12] = test: Antibacterial activity against multidrug resistant Escherichia coli infected in male Kunming mouse model assessed as reduction in epidermal thickening by H and E staining based analysis; type: functional, organism-based
Escherichia coli [13] = test: Antibacterial activity against Escherichia coli ATCC 25922 infected in male Kunming mouse model assessed as reduction in bacterial load measured after 11 days; type: functional, organism-based; settings: time 11.0 day
Escherichia coli [14] = test: Antibacterial activity against multidrug resistant Escherichia coli infected in male Kunming mouse model assessed as reduction in IL-6 expression by immunochemical analysis; type: functional, organism-based
Escherichia coli [15] = test: Antibacterial activity against multidrug resistant Escherichia coli infected in male Kunming mouse model assessed as inflammatory cell infiltration by H and E staining based analysis; type: functional, organism-based
Escherichia coli [16] = test: Antibacterial activity against multidrug resistant Escherichia coli infected in male Kunming mouse model assessed as reduction in wound size measured after 3 to 5 days by caliper method; type: functional, organism-based; settings: time 3-5 day
Escherichia coli [17] = test: Antibacterial activity against multidrug resistant Escherichia coli infected in male Kunming mouse model assessed as wound healing measured after 11 days by caliper method; type: functional, organism-based; settings: time 11.0 day
Escherichia coli [18] = test: Antibacterial activity against multidrug resistant Escherichia coli infected in male Kunming mouse model assessed as recovery of mouse weight measured after 11 days; type: functional, organism-based; settings: time 11.0 day
Escherichia coli [19] = test: Antibacterial activity against multidrug resistant Escherichia coli infected in male Kunming mouse model assessed as scabs thickening measured after 7 days by caliper method; type: functional, organism-based; settings: time 7.0 day
HEK-293T [20] = test: Cytotoxicity against HEK293T cells at 256 uM measured after 24 hrs by CCK-8 method relative to control; type: toxicity, cell-based; settings: human
L02 [21] = test: Cytotoxicity against human LO2 cells at 256 uM measured after 24 hrs by CCK-8 method relative to control; type: toxicity, cell-based; settings: l02, 24 h

Row | SMILES | MIC (Staphylococcus aureus [1]) [µM] | fold change (FC) (Escherichia coli [2]) | MIC (Acinetobacter baumannii) [µM] | MIC (Escherichia coli [3]) [µM] | MIC (Klebsiella pneumoniae) [µM] | MIC (Staphylococcus aureus [4]) [µM] | MIC (Enterococcus faecalis) [µM] | MIC (Escherichia coli [5]) [µM] | fold change (FC) (Staphylococcus aureus [6]) | MIC [7] [µM] | HC10 [10] [µM] | also measured
1 | CC1(C)S[C@@H]2[C@H](NC(=O)[C@H](N)c3ccc(O)cc3)C(=O)N2[C@H]1C(=O)O [AMOXICILLIN] | 64 (≈ 23.4 µg/mL) | 8 | 128 (≈ 46.8 µg/mL) | > 256 | > 256 | 0.25 (≈ 0.0914 µg/mL) | 64 (≈ 23.4 µg/mL) | 4 (≈ 1.46 µg/mL) | 64 | 128 (≈ 46.8 µg/mL) | – | –
2 | CO[C@H]1/C=C/O[C@@]2(C)Oc3c(C)c(O)c4c(O)c(c(/C=N/N5CCN(C)CC5)c(O)c4c3C2=O)NC(=O)/C(C)=C\C=C\[C@H](C)[C@H](O)[C@@H](C)[C@@H](O)[C@@H](C)[C@H](OC(C)=O)[C@@H]1C [RIFAMPIN] | 0.5 (≈ 0.411 µg/mL) | 8 | 16 (≈ 13.2 µg/mL) | 64 (≈ 52.7 µg/mL) | 16 (≈ 13.2 µg/mL) | 0.5 (≈ 0.411 µg/mL) | 4 (≈ 3.29 µg/mL) | 8 (≈ 6.58 µg/mL) | 64 | 2 (≈ 1.65 µg/mL) | – | –
3 | NCCCC[C@H](NC(=O)[C@H](Cc1ccccc1)NC(=O)[C@H](CCCCN)NC(=O)[C@H](Cc1ccccc1)NC(=O)[C@H](CCCCN)NC(=O)[C@@H]1CCCN1C(=O)[C@H](Cc1c[nH]c2ccccc12)NC(=O)[C@H](Cc1c[nH]c2ccccc12)NC(=O)[C@H](Cc1c[nH]c2ccccc12)NC(=O)[C@@H]1CCCN1C(=O)[C@H](CCCCN)NC(=O)[C@H](Cc1ccccc1)NC(=O)[C@H](CCCCN)NC(=O)[C@H](Cc1ccccc1)NC(=O)[C@@H](N)CCCCN)C(N)=O (H-KFKFKPWWWPKFKFK-NH2) | 4 (≈ 8.51 µg/mL) | – | 4 (≈ 8.51 µg/mL) | 4 (≈ 8.51 µg/mL) | 4 (≈ 8.51 µg/mL) | 4 (≈ 8.51 µg/mL) | 2 (≈ 4.26 µg/mL) | 2 (≈ 4.26 µg/mL) | – | 4 (≈ 8.51 µg/mL) | > 256 | Activity (BEAS-2B): Toxic; Activity (HEK-293T [8]): Toxic; Activity (L02 [9]): Toxic
4 | C[C@H]1COc2c(N3CCN(C)CC3)c(F)cc3c(=O)c(C(=O)O)cn1c23 [LEVOFLOXACIN ANHYDROUS] | 0.25 (≈ 0.0903 µg/mL) | – | > 256 | 64 (≈ 23.1 µg/mL) | 64 (≈ 23.1 µg/mL) | 0.25 (≈ 0.0903 µg/mL) | 32 (≈ 11.6 µg/mL) | 2 (≈ 0.723 µg/mL) | – | 8 (≈ 2.89 µg/mL) | – | Activity (Escherichia coli [11]): inactive; Activity (Escherichia coli [12]): inactive; Activity (Escherichia coli [13]): Active; Activity (Escherichia coli [14]): inactive; Activity (Escherichia coli [15]): inactive; Activity (Escherichia coli [16]): Active; Activity (Escherichia coli [17]): inactive; Activity (Escherichia coli [18]): Active; Activity (Escherichia coli [19]): Active
5 | CN[C@H](CC(C)C)C(=O)N[C@H]1C(=O)N[C@@H](CC(N)=O)C(=O)N[C@H]2C(=O)N[C@H]3C(=O)N[C@H](C(=O)N[C@H](C(=O)O)c4cc(O)cc(O)c4-c4cc3ccc4O)[C@H](O)c3ccc(c(Cl)c3)Oc3cc2cc(c3O[C@@H]2O[C@H](CO)[C@@H](O)[C@H](O)[C@H]2O[C@H]2C[C@](C)(N)[C@H](O)[C@H](C)O2)Oc2ccc(cc2Cl)[C@H]1O [VANCOMYCIN] | 1 (≈ 1.45 µg/mL) | – | > 256 | > 256 | > 256 | 1 (≈ 1.45 µg/mL) | > 256 | 256 (≈ 371 µg/mL) | – | 2 (≈ 2.9 µg/mL) | > 256 | Activity (HEK-293T [20]): 75%; Activity (L02 [21]): 75%
